Where “and” joins values, the source holds several entries; their conditions need not be identical. Equal values may be shown once.
Columns and labels:
wild type tobacco = test: Kill curve of glyphosate in tissue culture; format: in vivo, Nicotiana tabaccum var Samsun; conditions: 0.005 mM in MS medium, two weeks
Excerpt: Selection on glyphosate A kill curve is constructed for growth of tobacco in tissue culture on glyphosate containing medium. This is done by inserting a stem segment ˜6 mm long and carrying a leaf node into MS medium containing a range of glyphosate isopropylamine concentrations. Four/five stem segments are used at each concentration.

[1] = tested on: tobacco plants transformed with the Pseudomonas 4-HPPD gene; test: Explant bleaching test on MS agar, 4-HPPD transformants (Example 1); format: in vivo, Nicotiana tabacum var Samsun; conditions: subset of ZA1296 resistant plants
[2] = tested on: plants transformed with the Synechocystis sp. PCC6803 4-HPPD gene; test: Explant bleaching test on MS agar, 4-HPPD transformants (Example 2); format: in vivo, Potato and tomato; conditions: subset of ZA1296 resistant plants
wild type controls = test: Growth on herbicide-containing tissue culture medium; format: in vivo, Tobacco; conditions: 0.01 and 0.05 mM glyphosate; 10 and 40 ppm alachlor
[3] = tested on: primary transformants from pDV6-Bin; test: as above; format: in vivo, Tobacco; conditions: a number of transgenics; 0.01 and 0.05 mM glyphosate; 10 and 40 ppm alachlor
[4] = tested on: pDV6 plants expressing both glyphosate resistance genes and GST; test: Pre-em/post-em herbicide treatment of DV6 plants (Table 1); parameters: species or system Tobacco; conditions: in vivo
Wild type plants = test: Pre-em/post-em herbicide treatment (Table 1); format: in vivo, Tobacco; conditions: post-em 800 g/ha
[5] = tested on: pDV3 primary transformants (GOX/EPSPS tobacco); test: Glyphosate spray test of pDV3 lines; format: in vivo, Nicotiana tabaccum var Samsun; parameters: scale not given here
Protocol: (§1) A kill curve is established for the effect of glyphosate on wild type tobacco. Wild type tobacco growing in tissue culture is sub-cultured by taking stem segments and growing in fresh medium to generate 20 new plants. These are grown in tissue culture for one month before transfer to 3 inch pots in John Innes No 3 compost. They are initially covered in fleece to protect them. After uncovering they are allowed to acclimatise for four days before being sprayed. After spraying watering is only into the saucers i.e. no water is allowed to touch the leaves for five days. Scoring was done 8 days and 28 days after treatment.
(§2) Following construction of the glyphosate kill curve, a number of pDV1, 2 and 3 lines are spray tested with appropriate rates of glyphosate.

Wildtype tobacco = test: Glyphosate spray test (Table 8 control); format: in vivo, Nicotiana tabaccum var Samsun
Protocol: as §1, §2

[6] = tested on: tobacco from cross DV3 #43B x ET4-208; test: Glyphosate spray of DV3 #43B x ET4-208 seedlings; format: in vivo; conditions: 500 and 800 g/ha on seedlings tolerant to bleaching herbicides; scored 14 and 28 DAT
DV6/HPPD tobacco = test: Herbicide trial of DV6/HPPD cross (Example 10); format: in vivo; conditions: 800 g/ha on seedlings surviving 300 g/ha ZA1296
[7] = no pre-em, third line (plant not given)

CC(C)N.O=C(O)CNCP(=O)(O)O [Glyphosate isopropylamine]
Growth of explant (wild type tobacco): No growth in any organ

CS(=O)(=O)c1cc(C(F)(F)F)ccc1C(=O)c1cnoc1C1CC1 [Isoxaflutole, 5-cyclopropyl-4-(2-methylsulphonyl-4-trifluoromethylbenzoyl)isoxazole]
resistance of the herbicide resistant transgenic plants [1]: even more resistant
resistance of the herbicide resistant transgenic plants [2]: resistant

O=C(O)CNCP(=O)(O)O [Glyphosate, glyphosate]
growth on tissue culture medium (wild type controls): fail to
growth on tissue culture medium [3]: grow successfully
replicate score for damage, replicate a [4]: 75 and 100
replicate score for damage, replicate b [4]: 0
replicate score for damage, replicate c [4]: 0
replicate score for damage, replicate d [4]: 0 and 95
% Phytotoxicity (mean, 21 DAT) (Wild type plants; Wild type, no pre-em treatment): 86.25%
replicate score for damage, replicate a (Wild type plants; [7]): 90
replicate score for damage, replicate b (Wild type plants; [7]): 90
replicate score for damage, replicate c (Wild type plants; [7]): 90
replicate score for damage, replicate d (Wild type plants; [7]): 75
dose/response to glyphosate spray (damage) ([5]; pDV3 #11, 100 g/ha): 0
dose/response to glyphosate spray (damage) ([5]; pDV3 #11, 300 g/ha): 0
dose/response to glyphosate spray (damage) ([5]; pDV3 #11, 1000 g/ha): 25
dose/response to glyphosate spray (damage) ([5]; pDV3 #11, 3000 g/ha): 70
dose/response to glyphosate spray (damage) ([5]; pDV3 #11, 9000 g/ha): 80
dose/response to glyphosate spray (damage) ([5]; pDV3 #14, 100 g/ha): 7
dose/response to glyphosate spray (damage) ([5]; pDV3 #14, 300 g/ha): 22
dose/response to glyphosate spray (damage) ([5]; pDV3 #14, 1000 g/ha): 13
dose/response to glyphosate spray (damage) ([5]; pDV3 #14, 3000 g/ha): 33
dose/response to glyphosate spray (damage) ([5]; pDV3 #14, 9000 g/ha): 76
dose/response to glyphosate spray (damage) ([5]; pDV3 #19, 100 g/ha): 0
dose/response to glyphosate spray (damage) ([5]; pDV3 #19, 300 g/ha): 0
dose/response to glyphosate spray (damage) ([5]; pDV3 #19, 1000 g/ha): 0
dose/response to glyphosate spray (damage) ([5]; pDV3 #19, 3000 g/ha): 35
dose/response to glyphosate spray (damage) ([5]; pDV3 #19, 9000 g/ha): 80
dose/response to glyphosate spray (damage) ([5]; pDV3 #21, 100 g/ha): 0
dose/response to glyphosate spray (damage) ([5]; pDV3 #21, 300 g/ha): 5
dose/response to glyphosate spray (damage) ([5]; pDV3 #21, 1000 g/ha): 0
dose/response to glyphosate spray (damage) ([5]; pDV3 #21, 3000 g/ha): 24
dose/response to glyphosate spray (damage) ([5]; pDV3 #21, 9000 g/ha): 78
dose/response to glyphosate spray (damage) ([5]; pDV3 #31, 100 g/ha): 12
dose/response to glyphosate spray (damage) ([5]; pDV3 #31, 300 g/ha): 0
dose/response to glyphosate spray (damage) ([5]; pDV3 #31, 1000 g/ha): 4
dose/response to glyphosate spray (damage) ([5]; pDV3 #31, 3000 g/ha): 26
dose/response to glyphosate spray (damage) ([5]; pDV3 #31, 9000 g/ha): 78
dose/response to glyphosate spray (damage) ([5]; pDV3 #34, 100 g/ha): 0
dose/response to glyphosate spray (damage) ([5]; pDV3 #34, 300 g/ha): 0
dose/response to glyphosate spray (damage) ([5]; pDV3 #34, 1000 g/ha): 6
dose/response to glyphosate spray (damage) ([5]; pDV3 #34, 3000 g/ha): 30
dose/response to glyphosate spray (damage) ([5]; pDV3 #34, 9000 g/ha): 63
dose/response to glyphosate spray (damage) ([5]; pDV3 #36, 100 g/ha): 0
dose/response to glyphosate spray (damage) ([5]; pDV3 #36, 300 g/ha): 0
dose/response to glyphosate spray (damage) ([5]; pDV3 #36, 1000 g/ha): 0
dose/response to glyphosate spray (damage) ([5]; pDV3 #36, 3000 g/ha): 0
dose/response to glyphosate spray (damage) ([5]; pDV3 #36, 9000 g/ha): 0
dose/response to glyphosate spray (damage) ([5]; pDV3 #37, 100 g/ha): 0
dose/response to glyphosate spray (damage) ([5]; pDV3 #37, 300 g/ha): 0
dose/response to glyphosate spray (damage) ([5]; pDV3 #37, 1000 g/ha): 9
dose/response to glyphosate spray (damage) ([5]; pDV3 #37, 3000 g/ha): 24
dose/response to glyphosate spray (damage) ([5]; pDV3 #37, 9000 g/ha): 72
dose/response to glyphosate spray (damage) ([5]; pDV3 #43, 100 g/ha): 0
dose/response to glyphosate spray (damage) ([5]; pDV3 #43, 300 g/ha): 0
dose/response to glyphosate spray (damage) ([5]; pDV3 #43, 1000 g/ha): 0
dose/response to glyphosate spray (damage) ([5]; pDV3 #43, 3000 g/ha): 6
dose/response to glyphosate spray (damage) ([5]; pDV3 #43, 9000 g/ha): 73
dose/response to glyphosate spray (damage) ([5]; pDV3 #44, 100 g/ha): 0
dose/response to glyphosate spray (damage) ([5]; pDV3 #44, 300 g/ha): 40
dose/response to glyphosate spray (damage) ([5]; pDV3 #44, 1000 g/ha): 45
dose/response to glyphosate spray (damage) ([5]; pDV3 #44, 3000 g/ha): 78
dose/response to glyphosate spray (damage) ([5]; pDV3 #44, 9000 g/ha): 85
dose/response to glyphosate spray (damage) ([5]; pDV3 #45, 100 g/ha): 0
dose/response to glyphosate spray (damage) ([5]; pDV3 #45, 300 g/ha): 0
dose/response to glyphosate spray (damage) ([5]; pDV3 #45, 1000 g/ha): 3
dose/response to glyphosate spray (damage) ([5]; pDV3 #45, 3000 g/ha): 9
dose/response to glyphosate spray (damage) ([5]; pDV3 #45, 9000 g/ha): 70
dose/response to glyphosate spray (damage) ([5]; pDV3 #47, 100 g/ha): 5
dose/response to glyphosate spray (damage) ([5]; pDV3 #47, 300 g/ha): 0
dose/response to glyphosate spray (damage) ([5]; pDV3 #47, 1000 g/ha): 0
dose/response to glyphosate spray (damage) ([5]; pDV3 #47, 3000 g/ha): 11
dose/response to glyphosate spray (damage) ([5]; pDV3 #47, 9000 g/ha): 72
dose/response to glyphosate spray (damage) ([5]; pDV3 #60, 100 g/ha): 0
dose/response to glyphosate spray (damage) ([5]; pDV3 #60, 300 g/ha): 0
dose/response to glyphosate spray (damage) ([5]; pDV3 #60, 1000 g/ha): 0
dose/response to glyphosate spray (damage) ([5]; pDV3 #60, 3000 g/ha): 19
dose/response to glyphosate spray (damage) ([5]; pDV3 #60, 9000 g/ha): 63
dose/response to glyphosate spray (damage) ([5]; pDV3 #64, 100 g/ha): 0
dose/response to glyphosate spray (damage) ([5]; pDV3 #64, 300 g/ha): 5
dose/response to glyphosate spray (damage) ([5]; pDV3 #64, 1000 g/ha): 0
dose/response to glyphosate spray (damage) ([5]; pDV3 #64, 3000 g/ha): 12
dose/response to glyphosate spray (damage) ([5]; pDV3 #64, 9000 g/ha): 63
dose/response to glyphosate spray (damage) (Wildtype tobacco; 12.33 g/ha): 2
dose/response to glyphosate spray (damage) (Wildtype tobacco; 37 g/ha): 3
dose/response to glyphosate spray (damage) (Wildtype tobacco; 100 g/ha): 20
dose/response to glyphosate spray (damage) (Wildtype tobacco; 300 g/ha): 80
dose/response to glyphosate spray (damage) (Wildtype tobacco; 1000 g/ha): 93
resistance to post-emergence spray [6]: resistant
tolerance to spray (DV6/HPPD tobacco): demonstrate tolerance
